Values quoted from earlier work, collected in patent US20230383363A1, “METHOD FOR DETERMINING SENSITIVITY TO PARP INHIBITOR OR DNA DAMAGING AGENT USING NON-FUNCTIONAL TRANSCRIPTOME” (GC GENOME CORPORATION, priority 2020, published 2023).

Settings: patients selected by FoundationFocusCDxBRCA (BRCA1 and BRCA2 mutations)

## CNCc1ccc(-c2[nH]c3cc(F)cc4c3c2CCNC4=O)cc1 [rucaparib]
  overall response rate (ORR): 53.8%
